Like-named read-outs stand apart in the source and are kept apart here.
Tests used:
[1] = biological target: T1, His-GST-TVMV-hRIPK1(1-324) (Homo sapiens, UniProt Q13546); test: RIPK1 HTRF Binding Assay
T1 construct: The coding region of human RIPK1(1-324) flanked by NdeI site at 5′ end; made in house; host or cells: Spodoptera frugiperda (Sf9) insect cells, baculovirus
T1 sequence (Q13546 1-324): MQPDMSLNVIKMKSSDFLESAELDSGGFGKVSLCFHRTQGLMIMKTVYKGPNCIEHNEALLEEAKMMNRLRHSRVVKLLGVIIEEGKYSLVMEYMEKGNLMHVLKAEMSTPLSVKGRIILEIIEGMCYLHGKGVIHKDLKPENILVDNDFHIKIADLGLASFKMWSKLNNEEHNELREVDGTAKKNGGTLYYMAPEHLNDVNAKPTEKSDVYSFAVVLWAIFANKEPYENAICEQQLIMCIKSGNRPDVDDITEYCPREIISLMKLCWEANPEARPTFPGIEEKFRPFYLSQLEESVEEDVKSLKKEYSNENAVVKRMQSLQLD

[2] = system: MLKL phosphorylation in HT29-L23 human colorectal adenocarcinoma cells; test: MLKL Phosphorylation High-Content Assay; type: cell-based; conditions: Homo sapiens
Procedure, shortened: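 Cells incubated six hours at 37° C., then phospho-MLKL (S358) immunostained overnight at 4° C. and imaged by high-content microscopy. Phosphorylation quantified as mean circ-ring average intensity ratio; IC50 and Ymax from 4-parameter logistic fits.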

[3] = x marks IC50 class 20-200 nM, read-out: RIPK1 HTRF binding 20-200 nM
[4] = x marks IC50 class 20-200 nM, read-out: pMLKL cell activity 20-200 nM
[5] = x marks IC50 class >200 nM, read-out: pMLKL cell activity >200 nM
[6] = x marks IC50 class <20 nM, read-out: RIPK1 HTRF binding <20 nM

SMILES | IC50 [1, 3] | IC50 [2, 4] | IC50 [2, 5] | IC50 ([1]; x marks IC50 class >200 nM, read-out: RIPK1 HTRF binding >200 nM) | IC50 [1, 6]
COc1cnc(-c2ccn3nc(N)nc3c2)cc1C(=O)NCc1cc(OC(F)(F)F)ccc1F [Example 388, 2-(2-amino-[1,2,4]triazolo[1,5-a]pyridin-7-yl)-N-(2-fluoro-5-(trifluoromethoxy)benzyl)-5-methoxyisonicotinamide] | 20 to 200 nM | 20 to 200 nM | – | – | –
COc1cnc(-c2ccn3nc(N)nc3c2)cc1C(=O)N[C@H](C)c1cc(OC(F)(F)F)ccc1F [Example 389, (R)-2-(2-amino-[1,2,4]triazolo[1,5-a]pyridin-7-yl)-N-(1-(2-fluoro-5-(trifluoromethoxy)phenyl)ethyl)-5-methoxyisonicotinamide] | 20 to 200 nM | – | > 200 nM | – | –
COc1cnc(-c2ccn3nc(N)nc3c2)cc1C(=O)NCCC(C)c1ccccc1 (centres unmarked) [Example 390, 2-(2-amino-[1,2,4]triazolo[1,5-a]pyridin-7-yl)-5-methoxy-N-(3-phenylbutyl)isonicotinamide] | 20 to 200 nM | – | > 200 nM | – | –
COc1cnc(-c2ccn3nc(N)nc3c2)cc1C(=O)NCc1cc(C(F)(F)F)ccc1F [Example 391, 2-(2-amino-[1,2,4]triazolo[1,5-a]pyridin-7-yl)-N-(2-fluoro-5-(trifluoromethyl)benzyl)-5-methoxyisonicotinamide] | – | – | > 200 nM | > 200 nM | –
Cc1cnc(-c2ccn3nc(N)nc3c2)cc1C(=O)N[C@H](C)c1cc(OC(F)(F)F)ccc1F [Example 392, (R)-2-(2-amino-[1,2,4]triazolo[1,5-a]pyridin-7-yl)-N-(1-(2-fluoro-5-(trifluoromethoxy)phenyl)ethyl)-5-methylisonicotinamide] | – | 20 to 200 nM | – | – | < 20 nM
Cc1cnc(-c2ccn3nc(N)nc3c2)cc1C(=O)NCCC(C)c1ccccc1 (centres unmarked) [Example 393, 2-(2-amino-[1,2,4]triazolo[1,5-a]pyridin-7-yl)-5-methyl-N-(3-phenylbutyl)isonicotinamide] | – | 20 to 200 nM | – | – | < 20 nM
Cc1cnc(-c2ccn3nc(N)nc3c2)cc1C(=O)NCc1cc(OC(F)(F)F)ccc1F [Example 394, 2-(2-amino-[1,2,4]triazolo[1,5-a]pyridin-7-yl)-N-(2-fluoro-5-(trifluoromethoxy)benzyl)-5-methylisonicotinamide] | – | 20 to 200 nM | – | – | < 20 nM
Cc1cnc(-c2ccn3nc(N)nc3c2)cc1C(=O)NCC[C@@H](O)c1ccc(Cl)cc1 [Example 395, (R)-2-(2-amino-[1,2,4]triazolo[1,5-a]pyridin-7-yl)-N-(3-(4-chlorophenyl)-3-hydroxypropyl)-5-methylisonicotinamide] | – | 20 to 200 nM | – | – | < 20 nM
Cc1cnc(-c2ccn3nc(N)nc3c2)cc1C(=O)NCc1cc(C(F)(F)F)ccc1F [Example 398, 2-(2-amino-[1,2,4]triazolo[1,5-a]pyridin-7-yl)-N-(2-fluoro-5-(trifluoromethyl)benzyl)-5-methylisonicotinamide] | 20 to 200 nM | 20 to 200 nM | – | – | –
Cc1cnc(C(=O)NCc2cc(OC(F)(F)F)ccc2F)cc1-c1ccn2nc(N)nc2c1 [Example 399, 4-(2-amino-[1,2,4]triazolo[1,5-a]pyridin-7-yl)-N-(2-fluoro-5-(trifluoromethoxy)benzyl)-5-methylpicolinamide] | 20 to 200 nM | 20 to 200 nM | – | – | –
Cc1cnc(C(=O)NCCC(C)c2ccccc2)cc1-c1ccn2nc(N)nc2c1 (centres unmarked) [Example 400, 4-(2-amino-[1,2,4]triazolo[1,5-a]pyridin-7-yl)-5-methyl-N-(3-phenylbutyl)picolinamide] | – | 20 to 200 nM | – | – | < 20 nM
Cc1ccc(-c2ccn3nc(N)nc3c2)nc1C(=O)NCC[C@H](O)c1ccc(Cl)cc1 [Example 401, (S)-6-(2-amino-[1,2,4]triazolo[1,5-a]pyridin-7-yl)-N-(3-(4-chlorophenyl)-3-hydroxypropyl)-3-methylpicolinamide] | – | 20 to 200 nM | – | – | < 20 nM
Cc1ccc(-c2ccn3nc(N)nc3c2)nc1C(=O)NCC[C@@H](O)c1ccc(Cl)cc1 [Example 402, (R)-6-(2-amino-[1,2,4]triazolo[1,5-a]pyridin-7-yl)-N-(3-(4-chlorophenyl)-3-hydroxypropyl)-3-methylpicolinamide] | 20 to 200 nM | 20 to 200 nM | – | – | –
Cc1ccc(-c2ccn3nc(N)nc3c2)nc1C(=O)N[C@H](C)c1cc(OC(F)(F)F)ccc1F [Example 403, (R)-6-(2-amino-[1,2,4]triazolo[1,5-a]pyridin-7-yl)-N-(1-(2-fluoro-5-(trifluoromethoxy)phenyl)ethyl)-3-methylpicolinamide] | – | 20 to 200 nM | – | – | < 20 nM
Cc1ccc(-c2ccn3nc(N)nc3c2)nc1C(=O)NCCC(C)c1ccccc1 (centres unmarked) [Example 404, 6-(2-amino-[1,2,4]triazolo[1,5-a]pyridin-7-yl)-3-methyl-N-(3-phenylbutyl)picolinamide] | 20 to 200 nM | 20 to 200 nM | – | – | –
Cc1ccc(-c2ccn3nc(N)nc3c2)nc1C(=O)NCc1cc(OC(F)(F)F)ccc1F [Example 405, 6-(2-amino-[1,2,4]triazolo[1,5-a]pyridin-7-yl)-N-(2-fluoro-5-(trifluoromethoxy)benzyl)-3-methylpicolinamide] | 20 to 200 nM | – | > 200 nM | – | –
COc1ccc(-c2ccn3nc(N)nc3c2)nc1C(=O)N[C@H](C)c1cc(OC(F)(F)F)ccc1F [Example 406, (R)-6-(2-amino-[1,2,4]triazolo[1,5-a]pyridin-7-yl)-N-(1-(2-fluoro-5-(trifluoromethoxy)phenyl)ethyl)-3-methoxypicolinamide] | 20 to 200 nM | – | > 200 nM | – | –
Cc1cnc(-c2ccn3nc(N)nc3c2)nc1C(=O)N[C@H](C)c1cc(OC(F)(F)F)ccc1F [Example 407, (R)-2-(2-amino-[1,2,4]triazolo[1,5-a]pyridin-7-yl)-N-(1-(2-fluoro-5-(trifluoromethoxy)phenyl)ethyl)-5-methylpyrimidine-4-carboxamide] | 20 to 200 nM | 20 to 200 nM | – | – | –
Cc1cnc(-c2ccn3nc(N)nc3c2)nc1C(=O)NCC[C@@H](O)c1ccc(Cl)cc1 [Example 408, (R)-2-(2-amino-[1,2,4]triazolo[1,5-a]pyridin-7-yl)-N-(3-(4-chlorophenyl)-3-hydroxypropyl)-5-methylpyrimidine-4-carboxamide] | 20 to 200 nM | 20 to 200 nM | – | – | –
Cc1cnc(-c2ccn3nc(N)nc3c2)nc1C(=O)N[C@H](C)c1cc(C(F)(F)F)ccc1F [Example 409, (R)-2-(2-amino-[1,2,4]triazolo[1,5-a]pyridin-7-yl)-N-(1-(2-fluoro-5-(trifluoromethyl)phenyl)ethyl)-5-methylpyrimidine-4-carboxamide] | 20 to 200 nM | 20 to 200 nM | – | – | –
Cc1cnc(-c2ccn3nc(N)nc3c2)nc1C(=O)NCC[C@H](O)c1ccc(Cl)cc1 [Example 410, (S)-2-(2-amino-[1,2,4]triazolo[1,5-a]pyridin-7-yl)-N-(3-(4-chlorophenyl)-3-hydroxypropyl)-5-methylpyrimidine-4-carboxamide] | 20 to 200 nM | 20 to 200 nM | – | – | –
Cc1cnc(-c2ccn3nc(N)nc3c2)nc1C(=O)NCCC(C)c1ccccc1 (centres unmarked) [Example 411, 2-(2-amino-[1,2,4]triazolo[1,5-a]pyridin-7-yl)-5-methyl-N-(3-phenylbutyl)pyrimidine-4-carboxamide] | 20 to 200 nM | – | > 200 nM | – | –
Cc1ncc(-c2ccn3nc(N)nc3c2)cc1NC(=O)c1cnn(Cc2ccccc2)c1 [Example 412, N-(5-(2-amino-[1,2,4]triazolo[1,5-a]pyridin-7-yl)-2-methylpyridin-3-yl)-1-benzyl-1H-pyrazole-4-carboxamide] | – | 20 to 200 nM | – | – | < 20 nM
COc1ncc(-c2ccn3nc(N)nc3c2)cc1NC(=O)Cc1cc(OC(F)(F)F)ccc1F [Example 414, N-(5-(2-amino-[1,2,4]triazolo[1,5-a]pyridin-7-yl)-2-methoxypyridin-3-yl)-2-(2-fluoro-5-(trifluoromethoxy)phenyl)acetamide] | – | 20 to 200 nM | – | – | < 20 nM
COc1ncc(-c2ccn3nc(N)nc3c2)cc1NC(=O)Cc1cccc(OC(F)(F)F)c1 [Example 415, N-(5-(2-amino-[1,2,4]triazolo[1,5-a]pyridin-7-yl)-2-methoxypyridin-3-yl)-2-(3-(trifluoromethoxy)phenyl)acetamide] | 20 to 200 nM | 20 to 200 nM | – | – | –
COc1ncc(-c2ccn3nc(N)nc3c2)cc1NC(=O)Cc1cccc(C(F)(F)F)c1 [Example 416, N-(5-(2-amino-[1,2,4]triazolo[1,5-a]pyridin-7-yl)-2-methoxypyridin-3-yl)-2-(3-(trifluoromethyl)phenyl)acetamide] | 20 to 200 nM | – | > 200 nM | – | –
COc1ncc(-c2ccn3nc(N)nc3c2)cc1NC(=O)Cc1ccccc1OC(F)(F)F [Example 417, N-(5-(2-amino-[1,2,4]triazolo[1,5-a]pyridin-7-yl)-2-methoxypyridin-3-yl)-2-(2-(trifluoromethoxy)phenyl)acetamide] | 20 to 200 nM | – | > 200 nM | – | –
Cc1ncc(-c2ccn3nc(N)nc3c2)cc1NC(=O)c1cc(OC(F)(F)F)ccc1F [Example 419, N-(5-(2-amino-[1,2,4]triazolo[1,5-a]pyridin-7-yl)-2-methylpyridin-3-yl)-2-fluoro-5-(trifluoromethoxy)benzamide] | – | – | > 200 nM | – | < 20 nM
